According to patent publication US20100267697A1, “ION CHANNEL MODULATORS” (Wyeth, priority 2006, published 2010):

biological target: T1, human Cav2.2 (composed of the subunits α1, β3 and α2δ) (Homo sapiens, UniProt Q00975); assay: FLIPR assay (TSA201 cells stably transfected with human Cav2.2 and human Kir2.3, FLUO-4 Ca2+ signal, KCl depolarization); type: cell-based; conditions: 70 mM KCl depolarization, average value
T1 construct: expressed in transfected cells
Experimental: TSA201 cells stably transfected with human Cav2.2 (composed of the subunits α1, β3 and α2δ) and human Kir2.3 to enhance the FLIPR Ca^2+ signal were used. These cells were plated on 384-well collagen-coated plates (BD Bioscience, Franklin Lakes, N.J.) at a density of 2×10^4 cells/well one day prior to the FLIPR assay. […] Culture media is removed and replaced with 25 μl of the FLUO-4 dye solution and incubated for one hour at room temperature. The cell plate is then placed on the FLIPR where the dye is aspirated off and replaced with 25 μl of HBSS (Invitrogen, Carlsbad, Calif.). The HBSS is then aspirated and replaced with […] of compound which is diluted in HBSS with 1% DMSO. Compounds are incubated on the cells for 15 minutes. The cells are then depolarized with 25 μl of 140 mM KCl solution (also containing 2 mM CaCl2 and 10 mM HEPES). The final concentration of KCl on the cells is 70 mM.

T1 sequence (Q00975 whole entry): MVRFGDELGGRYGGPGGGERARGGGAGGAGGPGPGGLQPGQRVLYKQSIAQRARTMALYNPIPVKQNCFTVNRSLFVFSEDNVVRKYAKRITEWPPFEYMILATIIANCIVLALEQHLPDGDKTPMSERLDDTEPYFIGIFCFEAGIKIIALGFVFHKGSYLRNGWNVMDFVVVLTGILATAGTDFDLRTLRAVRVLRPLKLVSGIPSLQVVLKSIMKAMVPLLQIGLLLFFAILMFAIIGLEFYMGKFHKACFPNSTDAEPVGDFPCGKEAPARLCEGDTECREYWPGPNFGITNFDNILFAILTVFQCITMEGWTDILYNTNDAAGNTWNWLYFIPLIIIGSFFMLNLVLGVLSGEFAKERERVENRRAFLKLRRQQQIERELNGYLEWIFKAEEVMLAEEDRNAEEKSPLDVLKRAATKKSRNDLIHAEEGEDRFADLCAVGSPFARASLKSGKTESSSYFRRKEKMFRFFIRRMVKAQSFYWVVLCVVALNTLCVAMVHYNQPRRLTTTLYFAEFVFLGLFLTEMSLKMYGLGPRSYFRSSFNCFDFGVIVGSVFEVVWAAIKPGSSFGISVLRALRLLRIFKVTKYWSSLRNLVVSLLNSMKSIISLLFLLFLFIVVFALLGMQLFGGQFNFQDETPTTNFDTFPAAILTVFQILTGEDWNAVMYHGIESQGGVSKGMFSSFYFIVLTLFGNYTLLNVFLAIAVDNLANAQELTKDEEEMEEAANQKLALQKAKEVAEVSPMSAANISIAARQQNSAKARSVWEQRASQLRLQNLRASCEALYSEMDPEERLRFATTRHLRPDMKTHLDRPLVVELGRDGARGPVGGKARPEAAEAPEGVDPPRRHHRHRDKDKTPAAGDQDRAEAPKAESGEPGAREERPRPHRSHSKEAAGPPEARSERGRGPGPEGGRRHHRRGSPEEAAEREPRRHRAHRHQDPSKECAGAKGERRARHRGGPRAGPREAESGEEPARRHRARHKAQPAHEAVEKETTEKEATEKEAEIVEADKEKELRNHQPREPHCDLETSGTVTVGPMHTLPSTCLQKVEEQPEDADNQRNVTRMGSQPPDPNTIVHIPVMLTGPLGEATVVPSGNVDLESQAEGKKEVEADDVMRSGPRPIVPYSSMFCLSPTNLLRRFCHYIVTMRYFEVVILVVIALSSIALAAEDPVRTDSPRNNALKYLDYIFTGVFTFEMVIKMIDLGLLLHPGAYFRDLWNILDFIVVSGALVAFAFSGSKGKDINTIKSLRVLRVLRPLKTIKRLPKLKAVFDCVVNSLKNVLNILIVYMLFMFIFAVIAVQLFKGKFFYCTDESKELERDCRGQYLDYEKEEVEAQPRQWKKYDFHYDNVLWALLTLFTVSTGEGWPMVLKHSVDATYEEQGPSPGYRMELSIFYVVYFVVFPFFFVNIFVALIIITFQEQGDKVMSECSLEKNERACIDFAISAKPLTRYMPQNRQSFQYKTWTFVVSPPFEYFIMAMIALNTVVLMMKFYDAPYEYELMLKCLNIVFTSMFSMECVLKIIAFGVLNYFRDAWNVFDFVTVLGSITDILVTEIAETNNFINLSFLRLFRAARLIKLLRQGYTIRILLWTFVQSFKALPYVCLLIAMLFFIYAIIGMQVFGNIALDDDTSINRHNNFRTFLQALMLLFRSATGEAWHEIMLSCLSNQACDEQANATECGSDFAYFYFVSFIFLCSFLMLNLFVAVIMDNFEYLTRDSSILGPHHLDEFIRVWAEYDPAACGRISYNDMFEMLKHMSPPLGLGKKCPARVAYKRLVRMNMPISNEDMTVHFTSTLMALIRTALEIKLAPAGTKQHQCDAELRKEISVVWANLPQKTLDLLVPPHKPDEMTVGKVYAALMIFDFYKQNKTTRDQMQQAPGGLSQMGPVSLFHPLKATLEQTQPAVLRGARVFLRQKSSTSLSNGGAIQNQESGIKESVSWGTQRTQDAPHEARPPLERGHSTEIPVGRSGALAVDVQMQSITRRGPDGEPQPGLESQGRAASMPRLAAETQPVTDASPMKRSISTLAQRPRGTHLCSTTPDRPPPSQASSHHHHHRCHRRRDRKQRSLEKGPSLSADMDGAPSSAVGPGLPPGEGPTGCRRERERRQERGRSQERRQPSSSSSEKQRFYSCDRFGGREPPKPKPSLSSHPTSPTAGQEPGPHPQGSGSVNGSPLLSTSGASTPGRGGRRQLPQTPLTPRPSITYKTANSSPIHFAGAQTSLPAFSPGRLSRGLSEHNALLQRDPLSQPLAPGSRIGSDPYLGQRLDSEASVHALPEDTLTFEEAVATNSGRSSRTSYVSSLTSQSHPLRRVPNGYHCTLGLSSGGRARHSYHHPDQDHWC
T1 sequence (P54284 whole entry partner): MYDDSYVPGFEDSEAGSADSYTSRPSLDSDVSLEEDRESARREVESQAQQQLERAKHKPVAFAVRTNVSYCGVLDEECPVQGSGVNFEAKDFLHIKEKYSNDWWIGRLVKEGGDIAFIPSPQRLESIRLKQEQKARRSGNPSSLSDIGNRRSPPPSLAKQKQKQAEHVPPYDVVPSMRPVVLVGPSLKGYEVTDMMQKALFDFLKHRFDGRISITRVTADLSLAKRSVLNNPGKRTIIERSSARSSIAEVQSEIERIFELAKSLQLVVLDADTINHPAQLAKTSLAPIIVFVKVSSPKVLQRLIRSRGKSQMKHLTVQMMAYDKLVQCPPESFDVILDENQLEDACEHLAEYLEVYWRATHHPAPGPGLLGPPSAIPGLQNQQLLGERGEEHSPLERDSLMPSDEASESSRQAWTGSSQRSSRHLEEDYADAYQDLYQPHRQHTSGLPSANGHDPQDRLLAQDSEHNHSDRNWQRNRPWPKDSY
T1 sequence (P54289 25-946 partner limits assumed): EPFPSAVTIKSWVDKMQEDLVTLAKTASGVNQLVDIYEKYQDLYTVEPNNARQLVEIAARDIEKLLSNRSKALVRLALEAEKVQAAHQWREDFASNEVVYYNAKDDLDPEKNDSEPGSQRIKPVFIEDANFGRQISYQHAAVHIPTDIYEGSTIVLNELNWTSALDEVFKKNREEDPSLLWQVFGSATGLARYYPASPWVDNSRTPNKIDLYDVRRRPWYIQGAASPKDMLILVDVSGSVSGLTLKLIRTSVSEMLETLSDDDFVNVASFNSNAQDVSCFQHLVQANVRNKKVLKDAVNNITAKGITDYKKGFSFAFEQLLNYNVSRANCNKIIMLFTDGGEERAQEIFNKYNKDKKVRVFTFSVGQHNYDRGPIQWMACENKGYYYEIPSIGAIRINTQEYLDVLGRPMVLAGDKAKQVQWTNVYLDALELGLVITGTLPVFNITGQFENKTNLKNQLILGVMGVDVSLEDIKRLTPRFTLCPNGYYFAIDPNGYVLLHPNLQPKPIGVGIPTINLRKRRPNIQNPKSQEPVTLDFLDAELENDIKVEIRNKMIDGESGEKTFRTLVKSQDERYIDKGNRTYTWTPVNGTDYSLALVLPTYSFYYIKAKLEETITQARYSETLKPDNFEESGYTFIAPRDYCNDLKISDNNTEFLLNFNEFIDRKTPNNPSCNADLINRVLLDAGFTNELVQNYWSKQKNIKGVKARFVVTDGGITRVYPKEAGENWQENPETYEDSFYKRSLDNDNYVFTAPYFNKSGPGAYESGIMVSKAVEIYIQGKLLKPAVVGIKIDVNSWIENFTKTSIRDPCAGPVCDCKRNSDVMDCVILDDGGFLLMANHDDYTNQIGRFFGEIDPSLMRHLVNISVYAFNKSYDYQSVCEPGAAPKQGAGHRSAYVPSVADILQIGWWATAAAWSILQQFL
T1 sequence (P54289 947-1103 partner limits assumed): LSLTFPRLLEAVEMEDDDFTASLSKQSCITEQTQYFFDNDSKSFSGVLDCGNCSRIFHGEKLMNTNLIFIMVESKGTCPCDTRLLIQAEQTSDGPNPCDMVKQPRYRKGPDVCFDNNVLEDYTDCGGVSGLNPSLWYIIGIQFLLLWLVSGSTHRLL

Row | IC50 | Structure (SMILES)
1 | 57.7 µM | CN1CCN(c2ccc(CN(C(=O)[C@H]3CCNC3)c3ccc(F)cc3)cn2)CC1 [Compound 258, (3S)-N-(4-fluorophenyl)-N-{[6-(4-methylpiperazin-1-yl)pyridin-3-yl]methyl}pyrrolidine-3-carboxamide]
2 | 1.6 µM | CC(C)(C)C(=O)N(Cc1csc(N2CCCCCCC2)n1)c1ccc(F)cc1 [Compound 184, N-[(2-azocan-1-yl-1,3-thiazol-4-yl)methyl]-N-(4-fluorophenyl)-2,2-dimethylpropanamide]
3 | 11.4 µM | CC(C)(C)C(=O)N(Cc1csc(N2CCOCC2)n1)C1CCCCC1 [Compound 204, N-cyclohexyl-2,2-dimethyl-N-[(2-morpholin-4-yl-1,3-thiazol-4-yl)methyl]propanamide]
4 | 31.4 µM | CC(=O)N(Cc1csc(N2CCCC(O)C2)n1)c1ccc(F)cc1 (centres unmarked) [Compound 223, N-(4-fluorophenyl)-N-{[2-(3-hydroxypiperidin-1-yl)-1,3-thiazol-4-yl]methyl}acetamide]
5 | 9.5 µM | CN1CCN(c2ccc(CN(C(=O)C3CCCCC3)c3ccc(F)cc3)cn2)CC1 [Compound 125, N-(4-fluorophenyl)-N-{[6-(4-methylpiperazin-1-yl)pyridin-3-yl]methyl}cyclohexanecarboxamide]
6 | 1.6 µM | CC(C)(C)C(=O)N(Cc1csc(N2CCSCC2)n1)c1ccc(F)cc1 [Compound 189, N-(4-fluorophenyl)-2,2-dimethyl-N-[(2-thiomorpholin-4-yl-1,3-thiazol-4-yl)methyl]propanamide]
7 | 2.7 µM | CC(C)(C)C(=O)N(Cc1csc(N2CCC3(CC2)OCCO3)n1)c1ccc(F)cc1 [Compound 181, N-{[2-(1,4-dioxa-8-azaspiro[4.5]dec-8-yl)-1,3-thiazol-4-yl]methyl}-N-(4-fluorophenyl)-2,2-dimethylpropanamide]
8 | 8.2 µM | CC(C)(C)C(=O)N(Cc1ccc(N2CCCC2)nc1)c1ccc(F)cc1 [Compound 132, N-(4-fluorophenyl)-2,2-dimethyl-N-[(6-pyrrolidin-1-ylpyridin-3-yl)methyl]propanamide]
9 | 8.1 µM | CC(C)(C)C(=O)N(Cc1csc(N2CCN(c3ccccn3)CC2)n1)c1ccc(F)cc1 [Compound 149, N-(4-fluorophenyl)-2,2-dimethyl-N-{[2-(4-pyridin-2-ylpiperazin-1-yl)--1,3-thiazol-4-yl]methyl}propanamide]
10 | 3.4 µM | CCN(c1cccc(CN(C(=O)[C@@H]2CCCN2)c2ccc(F)cc2)c1)C1CC1 [Compound 118, N-{3-[cyclopropyl(ethyl)amino]benzyl}-N-(4-fluorophenyl)-L-prolinamide]
11 | 7.7 µM | CCCNc1nc(CN(C(=O)C(C)(C)C)c2ccc(F)cc2)cs1 [Compound 163, N-(4-fluorophenyl)-2,2-dimethyl-N-{[2-(propylamino)-1,3-thiazol-4-yl]methyl}propanamide]
12 | 2.5 µM | CC(C)(C)C(=O)N(Cc1csc(N2CCC(CO)CC2)n1)c1ccc(F)cc1 [Compound 185, N-(4-fluorophenyl)-N-({2-[4-(hydroxymethyl)piperidin-1-yl]-1,3-thiazol-4-yl}methyl)-2,2-dimethylpropanamide]
13 | 9.7 µM | O=C(Cc1ccccc1)N(Cc1csc(N2CCOCC2)n1)C1CCCCC1 [Compound 201, N-cyclohexyl-N-[(2-morpholin-4-yl-1,3-thiazol-4-yl)methyl]-2-phenylacetamide]
14 | 2.3 µM | CC(C)(C)C(=O)N(Cc1csc(N2CCCCCC2)n1)c1ccc(F)cc1 [Compound 183, N-[(2-azepan-1-yl-1,3-thiazol-4-yl)methyl]-N-(4-fluorophenyl)-2,2-dimethylpropanamide]
15 | 23.9 µM | CC(=O)N(Cc1ccc(N2CCC(CO)CC2)nc1)C1CCCCC1 [Compound 237, N-cyclohexyl-N-({6-[4-(hydroxymethyl)piperidin-1-yl]pyridin-3-yl}methyl)acetamide]
16 | 5.6 µM | CC(C)(C)C(=O)N(Cc1csc(N2CCCC(O)C2)n1)c1ccc(F)cc1 (centres unmarked) [Compound 186, N-(4-fluroophenyl)-N-{[2-(3-hydroxypiperidin-1-yl)-1,3-thiazol-4-yl]methyl}-2,2-dimethylpropanamide]
17 | 6.1 µM | CC(C)(C)C(=O)N(Cc1csc(C2CCCCC2)n1)c1ccc(F)cc1 [Compound 206, N-[(2-cyclohexyl-1,3-thiazol-4-yl)methyl]-N-(4-fluorophenyl)-2,2-dimethylpropanamide]
18 | 12.2 µM | CCN(CC)c1cccc(CN(C(=O)[C@@H]2CCCN2)c2ccc(Cl)cc2)n1 [Compound 119, N-(4-chlorophenyl)-N-{[6-(diethylamino)pyridin-2-yl]methyl}-L-prolinamide]

Row | IC50 | Structure (SMILES)
19 | 34.8 µM | CCN(CC)c1ccc(CN(C(=O)[C@@H]2CCCN2)c2ccc(F)cc2)cn1 [Compound 116, N-{[6-(diethylamino)pyridin-3-yl]methyl}-N-(4-fluroophenyl)-L-prolinamide]
20 | 16.4 µM | CC(=O)N(Cc1csc(N2CCCC(CO)C2)n1)c1ccc(F)cc1 (centres unmarked) [Compound 225, N-(4-fluorophenyl)-N-({2-[3-(hydroxymethyl)piperidin-1-yl]-1,3-thiazol-4-yl}methyl)acetamide]
21 | 2.9 µM | CC(C)(C)OC(=O)N1CC[C@H](C(=O)N(Cc2ccc(Cl)nc2)c2ccc(F)cc2)C1 [Compound 254, TERT-BUTYL (3S)-3-{[(6-CHLOROPYRIDIN-3-YL)METHYL](4-FLUOROPHENYL)CARBAMOYL}PYRROLIDINE-1-CARBOXYLATE]
22 | 5.1 µM | CCN(c1nc(CN(C(=O)C(C)(C)C)c2ccccc2)cs1)C1CC1 [Compound 168, N-({2-[cyclopropyl(ethyl)amino]-1,3-thiazol-4-yl}methyl)-2,2-dimethyl-N-phenylpropanamide]
23 | 22.4 µM | CC(=O)N(Cc1csc(N2CCC(O)CC2)n1)c1ccc(F)cc1 [Compound 222, N-(4-fluorophenyl)-N-{[2-(4-hydroxypiperidin-1-yl)-1,3-thiazol-4-yl]methyl}acetamide]
24 | 4.4 µM | CC(C)(C)C(=O)N(Cc1csc(N2CCCCC2)n1)c1ccc(F)cc1 [Compound 134, N-(4-fluorophenyl)-2,2-dimethyl-N-[(2-piperidin-1-yl-1,3-thiazol-4-yl)methyl]propanamide]
25 | 3.4 µM | CC1CN(c2nc(CN(C(=O)C(C)(C)C)c3ccc(F)cc3)cs2)CC(C)O1 (centres unmarked) [Compound 239, 2,2-dimethylpropanamide N-{[2-(2,6-dimethylmorpholin-4-yl)-1,3-thiazol-4-yl]methyl}-N-(4-fluorophenyl)-]
26 | 39 µM | CC(C)(C)C(=O)N(Cc1ccc(-c2cccc(C(=O)O)c2)nc1)c1ccc(F)cc1 [Compound 203, 3-(5-{[(2,2-dimethylpropanoyl)(4-fluorophenyl)amino]methyl}pyridin-2-yl)benzoic acid]
27 | 19.7 µM | CCN(c1nc(CN(C(=O)[C@@H]2CCC(=O)N2)c2ccc(F)cc2)cs1)C1CC1 [Compound 124, N-({2-[cyclopropyl(ethyl)amino]-1,3-thiazol-4-yl}methyl)-N-(4-fluorophenyl)-5-oxo-L-prolinamide]
28 | 4.75 µM | CN(C)c1nc(CN(C(=O)C(C)(C)C)c2ccc(F)cc2)cs1 [Compound 164, N-{[2-(dimethylamino)-1,3-thiazol-4-yl]methyl}-N-(4-fluorophenyl)-2,2-dimethylpropanamide]
29 | 2.4 µM | CCN(c1nc(CN(C(=O)C2CCCCC2)c2ccc(F)cc2)cs1)C1CC1 [Compound 211, N-({2-[cyclopropyl(ethyl)amino]-1,3-thiazol-4-yl}methyl)-N-(4-fluorophenyl)cyclohexanecarboxamide]
30 | 9.4 µM | CC(C)(C)C(=O)N(Cc1csc(Nc2ccc(F)cc2)n1)c1ccc(F)cc1 [Compound 158, N-(4-fluroophenyl)-N-({2-[(4-fluorophenyl)amino]-1,3-thiazol-4-yl}methyl)-2,2-dimethylpropanamide]
31 | 4.1 µM | CC(C)(C)C(=O)N(Cc1csc(-c2ccccc2C(F)(F)F)n1)c1ccc(F)cc1 [Compound 243, N-(4-fluorophenyl)-2,2-dimethyl-N-({2-[2-(trifluoromethyl)phenyl]-1,3-thiazol-4-yl}methyl)propanamide]
32 | 5.6 µM | CC(C)(C)C(=O)N(Cc1csc(N2CCOCC2)n1)c1ccc(F)cc1 [Compound 136, N-(4-fluorophenyl)-2,2-dimethyl-N-[(2-morpholin-4-yl-1,3-thiazol-4-yl)methyl]propanamide]
33 | 3.8 µM | CC(C)(C)C(=O)N(CCCc1csc(N2CCOCC2)n1)c1ccc(F)cc1 [Compound 213, N-(4-fluorophenyl)-2,2-dimethyl-N-[3-(2-morpholin-4-yl-1,3-thiazol-4-yl)propyl]propanamide]
34 | 1.35 µM | CCC(=O)N(CCc1cccnc1)c1ccc(CN(C(=O)C(C)(C)C)c2ccc(F)cc2)cn1 [Compound 135]
35 | 12.9 µM | CN(C)CCNc1nc(CN(C(=O)C(C)(C)C)c2ccc(F)cc2)cs1 [Compound 153, N-[(2-{[2-(dimethylamino)ethyl]amino}-1,3-thiazol-4-yl)methyl]-N-(4-fluorophenyl)-2,2-dimethylpropanamide]

Row | Structure (SMILES) | IC50
36 | O=C(C1CCCO1)N(Cc1ccc(Cl)nc1)c1ccc(F)cc1 (centres unmarked) [Compound 252, N-[(6-chloropyridin-3-yl)methyl]-N-(4-fluuorophenyl)tetrahydrofuran-2-carboxamide] | 13.4 µM
37 | CC(=O)N(Cc1ccc(Cl)nc1)c1ccc(F)cc1 [Compound 215, N-[(6-chloropyridin-3-yl)methyl]-N-(4-fluorophenyl)acetamide] | 21.4 µM
38 | CC(C)(C)C(=O)N(Cc1ccc(Cl)nc1)c1ccc(F)cc1 [Compound 195, N-[(6-chloropyridin-3-yl)methyl]-N-(4-fluorophenyl)-2,2-dimethylpropanamide] | 10.1 µM
